Data from the NIST ThermoML archive (doi:10.1021/je900938b).

Experiments:
[1] = 101.3 kPa, Liquid; for mass density: Pycnometric method
[2] = xn = mol fraction of the nth substance listed; details: 101 kPa, Liquid, x2 = 0; for mass density: Pycnometric method

OCCO [1,2-ethanediol]
[1]
Details	mass density [kg/m3]	viscosity [mPa·s]
298.15 K	–	17.4
303.15 K	1107.1	13.8
308.15 K	1103.5	11.5
313.15 K	1100.3	9.42
318.15 K	–	8.1
323.15 K	1093.5	6.95
328.15 K	–	5.96
333.15 K	1085.6	5.22
338.15 K	1082.1	4.53

OCCO [1,2-ethanediol] + OCC(O)CO
[2]
Details	mass density [kg/m3]	viscosity [mPa·s]
298.15 K	–	17.4
303.15 K	1107.1	13.8
308.15 K	1103.5	11.5
313.15 K	1100.3	9.42
318.15 K	–	8.1
323.15 K	1093.5	6.95
328.15 K	–	5.96
333.15 K	1085.6	5.22
338.15 K	1082.1	4.53

OCC(O)CO [glycerol]
[1]
Details	mass density [kg/m3]	viscosity [mPa·s]
298.15 K	1257.8	943.8
303.15 K	1254.7	628.9
308.15 K	1252.2	431.9
313.15 K	1249.4	295.9
318.15 K	1245.8	185.8
323.15 K	1242.3	151.2
328.15 K	1239.3	108.4
333.15 K	1236.1	84.8
338.15 K	1232.8	62.2
